US4317775A (Hoffmann-La Roche Inc., priority 1980, dated 1982)
In brackets after ≈: the same amount, converted by molar mass. Several values for one entry are separate records, joined by “and”; a condition that tells them apart may be missing. Equal entries are not always repeated. Structures can show the parent of a compound that is named as a salt. Where two headings read alike, the source gives them in different places.

Assays:
E. coli = assay: In vivo activity against systemic infection in mice, E. coli; conditions: in mg/kg
From the text: (§1) The PD50 is the protective dose for 50% of the animals treated against a challenge organism.

in vivo = conditions: mouse
Escherichia coli = assay: In vitro activity (MIC/MBC), Escherichia coli; format: cell-based; conditions: for MBC: read-out: Minimum Inhibitory Concentration (MBC)
From the text: (§2) MIC is the Minimum Inhibitory Concentration. MBC is the Minimum Bactericidal Concentration.
(§3) Results reported in Table 3(a) are reported as MIC defined above and results reported in Table 3(b) are reported as MBC defined above.

S. pneumoniae II = assay: In vivo activity against systemic infection in mice, S. pneumoniae II
From the text: as §1

S. pyogenes = assay: In vivo activity against systemic infection in mice, S. pyogenes
From the text: as §1

P. mirabilis = assay: In vivo activity against systemic infection in mice, P. mirabilis; conditions: in mg/kg
From the text: as §1

Streptococcus pyogenes = assay: In vitro activity (MIC/MBC), Streptococcus pyogenes; format: cell-based; conditions: for MBC: read-out: Minimum Inhibitory Concentration (MBC); for MIC: read-out: Minimum Inhibitory Concentration (MIC)
From the text: as §2, §3

S. pneumoniae I = assay: In vivo activity against systemic infection in mice, S. pneumoniae I
From the text: as §1

Klebsiella pneumoniae = assay: In vitro activity (MIC/MBC), Klebsiella pneumoniae; format: cell-based; conditions: for MBC: read-out: Minimum Inhibitory Concentration (MBC); for MIC: read-out: Minimum Inhibitory Concentration (MIC)
From the text: as §2, §3

K. pneumoniae = assay: In vivo activity against systemic infection in mice, K. pneumoniae; conditions: in mg/kg
From the text: as §1

Proteus vulgari = assay: In vitro activity (MIC/MBC), Proteus vulgari; format: cell-based; conditions: for MBC: read-out: Minimum Inhibitory Concentration (MBC); for MIC: read-out: Minimum Inhibitory Concentration (MIC)
From the text: as §2, §3

Staphylococcus aureus = assay: In vitro activity (MIC/MBC), Staphylococcus aureus; format: cell-based; conditions: for MBC: read-out: Minimum Inhibitory Concentration (MBC); for MIC: read-out: Minimum Inhibitory Concentration (MIC)
From the text: as §2, §3

P. aeruginosa = assay: In vivo activity against systemic infection in mice, P. aeruginosa
From the text: as §1

S. aureus = assay: In vivo activity against systemic infection in mice, S. aureus; conditions: in mg/kg
From the text: as §1

[1] = system: Streptococcus pneumonia II; assay: In vitro activity (MIC/MBC), Streptococcus pneumonia II; format: cell-based; conditions: Streptococcus pneumoniae; for MBC: read-out: Minimum Inhibitory Concentration (MBC); for MIC: read-out: Minimum Inhibitory Concentration (MIC)
From the text: as §2, §3

Salmonella typhosa = assay: In vitro activity (MIC/MBC), Salmonella typhosa; format: cell-based; conditions: Salmonella enterica
From the text: as §2, §3

[2] = system: Streptococcus pneumoniae I; assay: In vitro activity (MIC/MBC), Streptococcus pneumoniae I; format: cell-based; conditions: MBC, read-out: Minimum Inhibitory Concentration (MBC)
From the text: as §2, §3

[3] = system: Salmonella schottmuelleri; assay: In vitro activity (MIC/MBC), Salmonella schottmuelleri; format: cell-based
From the text: as §2, §3

[4] = read-out: Minimum Inhibitory Concentration (MIC)

| SMILES | PD50 (E. coli; oral) | PD50 (E. coli; subcutaneous) | LD50 (in vivo; ip) [mg/kg] | LD50 (in vivo; po) [mg/kg] | LD50 (in vivo; sc) [mg/kg] | MBC (Escherichia coli) [µg/mL] | MIC (Escherichia coli; [4]) [µg/mL] | PD50 (S. pneumoniae II; oral) [mg/kg] | PD50 (S. pneumoniae II; subcutaneous) [mg/kg] | PD50 (S. pyogenes; oral) [mg/kg] | PD50 (S. pyogenes; subcutaneous) [mg/kg] | PD50 (P. mirabilis; oral) | PD50 (P. mirabilis; subcutaneous) | MBC (Streptococcus pyogenes) [µg/mL] | MIC (Streptococcus pyogenes) [µg/mL] | PD50 (S. pneumoniae I; oral) [mg/kg] | PD50 (S. pneumoniae I; subcutaneous) [mg/kg] | MBC (Klebsiella pneumoniae) [µg/mL] | MIC (Klebsiella pneumoniae) [µg/mL] | PD50 (K. pneumoniae; subcutaneous) | other results |
| --- | --- | --- | --- | --- | --- | --- | --- | --- | --- | --- | --- | --- | --- | --- | --- | --- | --- | --- | --- | --- | --- |
| CC1(C)S[C@@H]2[C@H](NC(=O)[C@H](NC3CCCS3)c3ccc(O)cc3)C(=O)N2[C@H]1C(=O)O (relative stereo) [Compound III, {2S-[2α,5α,6β(S*)]}-6-{[tetrahydro-2-thienylamino-(4-hydroxyphenyl)acetyl]amino}-3,3-dimethyl-7-oxo-4-thia-1-azabicyclo[3.2.0]heptane-2-carboxylic acid sodium salt] | 18.7 | 19.4 | 668 | 558 | 598 | 4.44 | 4.44 | 3.2 | 3.2 | 6.3 | 4.1 | 3.8 | 2.5 | > 8.88 | 0.554 | 4.7 | 2.5 | 1.11 | 0.554 | 5.3 | PD50 (K. pneumoniae; oral): 15.5; MBC (Proteus vulgari): 0.554 µg/mL; MIC (Proteus vulgari): 0.554 µg/mL; MBC (Staphylococcus aureus): 0.138 µg/mL; MIC (Staphylococcus aureus): 0.138 µg/mL; PD50 (P. aeruginosa; oral): > 142 mg/kg; PD50 (P. aeruginosa; subcutaneous): > 142 mg/kg |
| CCC1CC(F)C(N(C2OC(CC)CC2F)[C@@H](C(=O)N[C@@H]2C(=O)N3[C@@H]2SC(C)(C)[C@@H]3C(=O)O)c2ccc(O)cc2)O1 (relative stereo) [Compound IV, {2S-[2α,5α,6β(S*)]}-6-{bis[5-ethyl-3-fluoro-2-tetrahydrofuranylamino-(4-hydrophenyl)-acetyl]amino}-3,3-dimethyl-7-oxo-4-thia-1-azabicyclo-[3.2.0]heptane-2-carboxylic acid sodium salt] | 22.1 | 10.4 | 3520 | 3960 | 2800 | 3.5 | 3.5 | 0.7 | 0.5 | 6 | 4.4 | 1.6 | 0.4 | > 0.218 | 0.027 | 0.7 | 0.9 | 0.437 | 0.218 | 2.4 | PD50 (K. pneumoniae; oral): 4.8; PD50 (S. aureus; oral): 1.2; PD50 (S. aureus; subcutaneous): 0.34; MBC [1]: 0.027 µg/mL; MIC [1]: 0.013 µg/mL; MBC (Staphylococcus aureus): 0.055 µg/mL; MIC (Staphylococcus aureus): 0.055 µg/mL |
| CC1(C)S[C@@H]2[C@H](NC(=O)[C@H](N)c3ccc(O)cc3)C(=O)N2[C@H]1C(=O)O [Amoxicillin, amoxicillin, reference compound] | 14.1 and 18.5 and 19.3 and 13.1 | 10 and 5.9 and 7.3 and 6.8 |  |  |  |  | 3.12 (≈ 8.55 µM) |  |  |  |  | 1.8 and 1.1 | < 0.5 and 0.6 |  |  |  |  |  | 0.39 (≈ 1.07 µM) | 3.6 and 5 and 3.7 | MBC (Salmonella typhosa; read-out: Minimum Inhibitory Concentration (MBC), MBC, Salmonella typhosa): 0.39 µg/mL (≈ 1.07 µM); MIC (Salmonella typhosa; read-out: Minimum Inhibitory Concentration (MIC), Salmonella typhosa): 0.39 µg/mL (≈ 1.07 µM); MIC (Escherichia coli; read-out: Minimum Inhibitory Concentration (MIC), Escherichia coli): 6.25 µg/mL (≈ 17.1 µM); MBC [2]: 0.024 µg/mL (≈ 0.0657 µM); MBC ([3]; MBC, Salmonella schottmuelleri, read-out: Minimum Inhibitory Concentration (MBC)): 0.78 µg/mL (≈ 2.13 µM); MIC ([3]; Salmonella, read-out: Minimum Inhibitory Concentration (MIC)): 0.78 µg/mL (≈ 2.13 µM); PD50 (S. aureus; oral): 0.5 and 0.6; PD50 (S. aureus; subcutaneous): < 0.2; MBC [1]: 0.049 µg/mL (≈ 0.134 µM); MIC [1]: 0.024 µg/mL (≈ 0.0657 µM); MBC (Proteus vulgari): 0.78 µg/mL (≈ 2.13 µM); MIC (Proteus vulgari): 1.56 µg/mL (≈ 4.27 µM); PD50 (P. aeruginosa; oral): > 200 mg/kg; PD50 (P. aeruginosa; subcutaneous): > 200 mg/kg; LD50 (Acute toxicity in mice; mice, i.p.): 3535 mg/kg and 3150 mg/kg; LD50 (Acute toxicity in mice; mouse, in vivo, ip, LD50, mice): 3140 mg/kg; LD50 (Acute toxicity in mice; mouse, in vivo, po, LD50, mice): > 10000 mg/kg; LD50 (Acute toxicity in mice; mouse, in vivo, sc, LD50, mice): > 10000 mg/kg |
